{"source": "patent US20250032483A1", "about": "“COMPOSITIONS AND METHODS FOR TREATING PAIN” (ICAHN SCHOOL OF MEDICINE AT MOUNT SINAI, priority 2021, published 2025)", "key": {"[1]": {"test_system": "CFA model of peripheral inflammation in female mice", "test": "Hargreaves' thermal beam assay, CFA model", "format": "in vivo", "settings": "5 mg/kg i.p. QD, vs saline", "method": "(§1) The inventors used the CFA model of peripheral inflammation in female mice to determine the impact of ILF3 inhibition in sensory hypersensitivity behaviors associated with inflammatory pain states. […] To identify any immediate analgesic effects of YM155 under local, peripheral inflammation conditions, the inventors first tested CFA-injected mice in the Von Frey and Hargreave's assays at 30 minutes post-drug administration.\n(§2) The inventors also tested whether YM155 had sustained effects on sensory hypersensitivity after the expected window of activity (approximately 24 hours post-injection, based on a ˜one hour half-life in intravenously-treated mice).\n(§3) For studies using models of peripheral inflammation, two-to three-month old mice received 30 μL left hindpaw injections of Complete Freund's Adjuvant (CFA: diluted 1:1 in saline) or IFNB injections (300 U per 25 μL), as described previously. For studies using the post-operative incision model, two-to three-month-old mice received an incision from the posterior plantar surface of the hindpaw to the middle of the paw pads, in which dermis and superficial muscle was cut and dermis was sutured afterwards. […]\nThe CFA model induces thermal hypersensitivity for 10-14 days on average. […] Three measurements were recorded and averaged for each hindpaw, with each measurement taking place at least two minutes apart."}, "[2]": {"test_system": "CFA model of peripheral inflammation in female mice", "test": "Von Frey assay, CFA model", "format": "in vivo", "settings": "5 mg/kg i.p. QD, vs saline", "method": "as §1, §2\nFor studies using models of peripheral inflammation, two-to three-month old mice received 30 μL left hindpaw injections of Complete Freund's Adjuvant (CFA: diluted 1:1 in saline) or IFNB injections (300 U per 25 μL), as described previously. […]\n(§4) Hamsters/mice were placed on a raised grid platform in plastic containers and were allowed to habituate to their environment for a minimum of 10 minutes. Afterwards, filaments of ascending forces were applied to the left hindpaw and responses were recorded. […] Progression to the next filament was determined by recording of positive or negative responses for three out of five applications with each filament. […]"}, "[3]": {"test": "Body weight during YM155 administration, CFA model", "format": "in vivo, mice", "settings": "5 mg/kg i.p. QD; first 9 days of treatment", "method": "as §2\nFor studies using models of peripheral inflammation, two-to three-month old mice received 30 μL left hindpaw injections of Complete Freund's Adjuvant (CFA: diluted 1:1 in saline) or IFNB injections (300 U per 25 μL), as described previously. For studies using the post-operative incision model, two-to three-month-old mice received an incision from the posterior plantar surface of the hindpaw to the middle of the paw pads, in which dermis and superficial muscle was cut and dermis was sutured afterwards. CFA and paw incision groups of mice received daily intraperitoneal (i.p.) injections of saline (vehicle) or YM155 (Tocris Biosciences), an Interleukin Enhancer Binding Factor 3 (ILF3) inhibitor (2.5 or 5 mg/kg diluted in saline)."}, "[4]": {"test_system": "interferon-induced mechanical hypersensitivity in mice", "test": "Von Frey assay, hindpaw IFNβ injection model", "format": "in vivo", "from_the_text": "While the CFA model promotes both peripheral interferon and cytokine signaling. the inventors wanted to investigate the role of ILF3 inhibition in a model of isolated interferon signaling to better understand its role in virus-induced hypersensitivity. For this, the inventors implemented hindpaw interferon β (IFNβ) injections. The inventors compared mechanical thresholds between a group of female mice that received no IFNβ injection and daily saline (Naïve-Saline), a group that received a single IFNβ injection and daily saline (IFNβ-Saline). and a group that received a single IFNβ injection and immediate daily administration of YM155 (5 mg/kg i.p. BID: IFNβ-YM155). […] The inventors therefore performed an experiment in which a Naïve-Saline and IFNβ-Saline group began receiving YM155 (2.5 mg/kg i.p. BID) after mechanical thresholds were taken one day after intraplantar injections. […] ILF3 inhibition is effective at suppressing interferon-induced hypersensitivity in both mouse sexes. […]\nas §4"}, "paw incision model mice [5]": {"test_system": "paw incision model mice", "test": "Von Frey assay, paw incision model (pre-treatment)", "format": "in vivo", "settings": "pre-treatment 5 mg/kg i.p. for seven days; no drug after incision; vs saline", "method": "(§5) The inventors also tested whether YM155 could be used to prophylactically reduce pain experienced after acute post-operative injuries. For this, the inventors used the paw incision model and pre-treated animals at a dose of 5 mg/kg i.p, for seven days. Animals were not treated with drug after the incision.\nas §3, §4"}, "paw incision model mice [6]": {"test_system": "paw incision model mice", "test": "Locomotor activity after paw incision", "format": "in vivo", "settings": "Day 1 post-paw incision; YM155 vs saline", "method": "as §5"}, "mice": {"test_system": "mice", "test": "Toxicity observed on dosing in mice", "format": "in vivo"}, "[7]": {"settings": "intravenously-treated mice; cited from earlier work"}, "[8]": {"settings": "CFA-injected female mice, 30-60 minutes after administration"}}, "note": "Entries after “also recorded” stand apart in the source; their conditions may differ."}
{"compound": "COCCn1c2c([n+](Cc3cnccn3)c1C)C(=O)c1ccccc1C2=O", "note": "[YM155]", "values": [{"measurement": "thermal thresholds / Hargreaves' withdrawal latency, sustained", "setting": "[1]; CFA mice, ~24 hours post-injection, six consecutive days of administration (PD-D6)", "result": "increased thermal thresholds in a sustained fashion; also recorded: significantly higher withdrawal latency"}, {"measurement": "thermal thresholds / Hargreaves' response times", "setting": "[1]; [8]", "result": "increased thermal thresholds; also recorded: increased Hargreaves' response times"}, {"measurement": "mechanical thresholds (von Frey), sustained", "setting": "[2]; CFA mice, ~24 hours after administration, PD-D5, PD-D7, PD-D9", "result": "increased mechanical thresholds in a sustained fashion; also recorded: sustained recovery of mechanical thresholds"}, {"measurement": "mechanical (von Frey) thresholds", "setting": "[2]; [8]", "result": "increased mechanical thresholds; also recorded: increased von Frey thresholds"}, {"measurement": "post-CFA weight", "setting": "[3]", "result": "No changes in post-CFA weight were observed"}, {"measurement": "interferon-induced mechanical hypersensitivity (mechanical thresholds)", "setting": "[4]; female mice, hindpaw IFNβ 300U/25 μL, concurrent YM155 5 mg/kg i.p., days 1 and 3 after IFNβ, 5 mg/kg", "result": "interrupted the onset of interferon-induced mechanical hypersensitivity; also recorded: no change in thresholds"}, {"measurement": "mechanical thresholds, IFNβ group", "setting": "[4]; male mice, 2.5 mg/kg i.p. BID started one day after intraplantar injection, by day three", "result": "substantial increase in mechanical thresholds"}, {"measurement": "mechanical hypersensitivity after paw incision", "setting": "paw incision model mice [5]", "result": "significantly lower mechanical hypersensitivity after paw incision; also recorded: significant reduction in mechanical hypersensitivity"}, {"measurement": "locomotion / locomotor activity", "setting": "paw incision model mice [6]", "result": "No differences in locomotion were observed; also recorded: no changes in locomotor activity"}, {"measurement": "toxicity", "setting": "mice; female mice, 20 mg/kg", "result": "lethal toxicity"}, {"measurement": "toxicity", "setting": "mice; male mice, 2.5 mg/kg i.p. BID", "result": "did not observe toxicity"}, {"measurement": "toxicity", "setting": "mice; male mice, 5 mg/kg dose", "result": "increased sensitivity to the drug and subsequent toxicity"}, {"measurement": "half-life", "setting": "[7]", "result": "one"}]}
